In brackets after ≈: the same amount, converted by molar mass.
Experiments:
[1] = tested on: Strep. faecalis ATCC 10541; assay: Antimicrobial activity, agar dilution; assay type: cell-based, Streptococcus faecalis; conditions: Enterococcus faecalis, ATCC10541, 20 h, Agar Dextrose dilutions, 37°C, 20 heures, read-out: Activité pharmacologique antimicrobienne (concentrations)
Text: (§1) L'activité pharmacologique antimicrobienne de ces composés a été étudiée selon les références exposées ci-dessous.
(§2) Activité pharmacologique antimicrobienne : G.L. Daquet et Y.A. Chabbect, techniques en bactériologie, Vol. 3, Flammarion Médecine-Sciences, Paris 1972, et W.B. Hugo et A.D. Rusell, Pharmaceutical Microbiology, Blackwell Scientific Publications, London, 1977.
(§3) Milieu de culture et solvant : Agar d'antibiotiques n° 1 (Oxoid CM 327) Bouillon de triptone-soja (Oxoid CM 129) Solution Physiologique Ringer 1/4 (Oxoid BR 52) Agar Dextrose (BBL 11165)
(§4) Microorganismes : "Bacillus subtilis" ATCC 6633 "Citrobacter freundii" ATCC 112606 "Enterobacter aerogenes" ATCC 15038 "Enterobacter cloacae" ATCC 23355 "Bacillus cereus" ATCC 1178 "Escherichia coli" ATCC 10799 "Escherichia coli" ATCC 23559 "Klebsiella pneumoniae" ATCC 10031 "Proteus vulgaris" ATCC 8427 "Morg. morganii" ATCC 8019 "Pseudomonas aeruginosa" ATCC 9721 "Pseudomonas aeruginosa" ATCC 10145 "Salmonella typhimurium" ATCC 14028 "Salmonella typhimurium" ATCC 6539 "Serratia marcescens" ATCC 13880 "Shigella flexnerii" ATCC 12022 "Staphylococcusepidermis" ATCC 155-1 "Staphylococcus aureus" ATCC 25178 "Streptococcus faecalis" ATCC 10541.
(§5) Chacun des microorganismes est ensemencé par strie dans des tubes d'Agar d'antibiotiques n° 1, et mis en incubation pendant 20 heures à 37°C. Ensuite, on prend une anse de culture, on ensemence dans un bouillon de Triptone-soja et on incube pendant 20 heures à 37°C. On dilue à 1/4 la culture obtenue avec une solution physiologique Ringer, de façon à obtenir une suspension normalisée de […] pour chaque organisme.
(§6) A partir d'une solution de 100 µg/ml, chaque produit est dilué dans l'Agar Dextrose (préalablement fondu et maintenu à 50°C) par dilutions successives de façon à obtenir les concentrations suivantes : 64-32-16-8-4-2-1-0,5-0,25-0,125 µg de dérivé/ml du milieu.
(§7) Postérieurement, chaque concentration de chaque produit est répartie dans des boîtes de Petri de 10 cm de diamètre, à raison de 10 ml de milieu par boîte et autant de boîtes que de microorganismes à tester.
(§8) Une fois le milieu refroidi, les boîtes sont ensemencées avec les inoculations à raison de 0,4 ml d'inoculation par boîte. On les étend avec une anse de Driglasky et on recueille le surnageant. Les boîtes ensemencées sont incubées à 37°C pendant 20 heures.
(§9) Les résultats obtenus sont décrits dans les tableaux suivants. Les concentrations sont données en µg/ml.

Staph. aureus ATCC 25178 = assay: Antimicrobial activity, agar dilution; assay type: cell-based, Staphylococcus aureus; conditions: Staphylococcus aureus, ATCC25178, 20 h, Agar Dextrose dilutions, 37°C, 20 heures, read-out: Activité pharmacologique antimicrobienne (concentrations)
Text: as §1, §2, §3, §4, §5, §6, §7, §8, §9

[2] = tested on: Citr. freundii ATCC 11606; assay: Antimicrobial activity, agar dilution; assay type: cell-based, Citrobacter freundii; conditions: Citrobacter freundii, ATCC11606, 20 h, Agar Dextrose dilutions, 37°C, 20 heures, read-out: Activité pharmacologique antimicrobienne (concentrations)
Text: as §1, §2, §3, §4, §5, §6, §7, §8, §9

[3] = tested on: Bacillus cereus ATCC 11778; assay: Antimicrobial activity, agar dilution; assay type: cell-based; conditions: Bacillus cereus, ATCC11778, 20 h, Agar Dextrose dilutions, 37°C, 20 heures, read-out: Activité pharmacologique antimicrobienne (concentrations)
Text: as §1, §2, §3, §4, §5, §6, §7, §8, §9

[4] = tested on: Bacillus subtilis ATCC 6633; assay: Antimicrobial activity, agar dilution; assay type: cell-based; conditions: ATCC6633, 20 h, Agar Dextrose dilutions, 37°C, 20 heures, read-out: Activité pharmacologique antimicrobienne (concentrations)
Text: as §1, §2, §3, §4, §5, §6, §7, §8, §9

[5] = tested on: Escherichia coli ATCC 10799; assay: Antimicrobial activity, agar dilution; assay type: cell-based; conditions: Escherichia coli, ATCC10799, 20 h, Agar Dextrose dilutions, 37°C, 20 heures, read-out: Activité pharmacologique antimicrobienne (concentrations)
Text: as §1, §2, §3, §4, §5, §6, §7, §8, §9

[6] = tested on: Escherichia coli ATCC 23559; assay: Antimicrobial activity, agar dilution; assay type: cell-based; conditions: Escherichia coli, ATCC23559, 20 h, Agar Dextrose dilutions, 37°C, 20 heures, read-out: Activité pharmacologique antimicrobienne (concentrations)
Text: as §1, §2, §3, §4, §5, §6, §7, §8, §9

Morg. morganii ATCC 8019 = assay: Antimicrobial activity, agar dilution; assay type: cell-based; conditions: Morganella morganii, ATCC8019, 20 h, Agar Dextrose dilutions, 37°C, 20 heures, read-out: Activité pharmacologique antimicrobienne (concentrations)
Text: as §1, §2, §3, §4, §5, §6, §7, §8, §9

[7] = tested on: Proteus vulgaris ATCC 8427; assay: Antimicrobial activity, agar dilution; assay type: cell-based; conditions: Proteus vulgaris, ATCC8427, 20 h, Agar Dextrose dilutions, 37°C, 20 heures, read-out: Activité pharmacologique antimicrobienne (concentrations)
Text: as §1, §2, §3, §4, §5, §6, §7, §8, §9

[8] = tested on: Ps. aeruginosa ATCC 10145; assay: Antimicrobial activity, agar dilution; assay type: cell-based; conditions: Pseudomonas aeruginosa, ATCC10145, 20 h, Agar Dextrose dilutions, 37°C, 20 heures, read-out: Activité pharmacologique antimicrobienne (concentrations)
Text: as §1, §2, §3, §4, §5, §6, §7, §8, §9

Ps. aeruginosa ATCC 9721 = assay: Antimicrobial activity, agar dilution; assay type: cell-based; conditions: Pseudomonas aeruginosa, ATCC9721, 20 h, Agar Dextrose dilutions, 37°C, 20 heures, read-out: Activité pharmacologique antimicrobienne (concentrations)
Text: as §1, §2, §3, §4, §5, §6, §7, §8, §9

Sal. typhi ATCC 6539 = assay: Antimicrobial activity, agar dilution; assay type: cell-based; conditions: Salmonella enterica, 20 h, read-out: Activité pharmacologique antimicrobienne (concentrations)
Text: as §1, §2, §3, §4, §5, §6, §7, §8, §9

[9] = tested on: Shigella flexnerii ATCC 12022; assay: Antimicrobial activity, agar dilution; assay type: cell-based; conditions: ATCC12022, 20 h, Agar Dextrose dilutions, 37°C, 20 heures, read-out: Activité pharmacologique antimicrobienne (concentrations)
Text: as §1, §2, §3, §4, §5, §6, §7, §8, §9

[10] = tested on: Staph. epidermidis ATCC 155-1; assay: Antimicrobial activity, agar dilution; assay type: cell-based; conditions: Staphylococcus epidermidis, ATCC155, 20 h, Agar Dextrose dilutions, 37°C, 20 heures, read-out: Activité pharmacologique antimicrobienne (concentrations)
Text: as §1, §2, §3, §4, §5, §6, §7, §8, §9

[11] = tested on: Kleb. pneumoniae ATCC 10031; assay: Antimicrobial activity, agar dilution; assay type: cell-based, Klebsiella pneumoniae; conditions: Klebsiella pneumoniae, ATCC10031, 20 h, Agar Dextrose dilutions, 37°C, 20 heures, read-out: Activité pharmacologique antimicrobienne (concentrations)
Text: as §1, §2, §3, §4, §5, §6, §7, §8, §9

[12] = tested on: Sal. typhimurium ATCC 14028; assay: Antimicrobial activity, agar dilution; assay type: cell-based, Salmonella typhimurium; conditions: Salmonella enterica, 20 h, Agar Dextrose dilutions, 37°C, 20 heures, read-out: Activité pharmacologique antimicrobienne (concentrations)
Text: as §1, §2, §3, §4, §5, §6, §7, §8, §9

[13] = tested on: Ent. aerogenes ATCC 15038; assay: Antimicrobial activity, agar dilution; assay type: cell-based, Enterobacter aerogenes; conditions: Klebsiella aerogenes, ATCC15038, 20 h, Agar Dextrose dilutions, 37°C, 20 heures, read-out: Activité pharmacologique antimicrobienne (concentrations)
Text: as §1, §2, §3, §4, §5, §6, §7, §8, §9

Ent. cloacae ATCC 23355 = assay: Antimicrobial activity, agar dilution; assay type: cell-based, Enterobacter cloacae; conditions: Enterobacter cloacae, ATCC23355, 20 h, Agar Dextrose dilutions, 37°C, 20 heures, read-out: Activité pharmacologique antimicrobienne (concentrations)
Text: as §1, §2, §3, §4, §5, §6, §7, §8, §9

[14] = tested on: Serr. marcescens ATCC 13880; assay: Antimicrobial activity, agar dilution; assay type: cell-based, Serratia marcescens; conditions: Serratia marcescens, ATCC13880, 20 h, Agar Dextrose dilutions, 37°C, 20 heures, read-out: Activité pharmacologique antimicrobienne (concentrations)
Text: as §1, §2, §3, §4, §5, §6, §7, §8, §9

[15] = Solubility in water and at pH 7.4; assay type: physicochemical
Text: Un grand nombre des composés de l'invention manifestent une augmentation de la solubilité dans l'eau ainsi que de la solubilité à pH 7,4 lorsqu'on compare avec les composés de référence. L'augmentation de solubilité au pH physiologique peut favoriser l'absorption du produit et la solubilité élevée dans l'eau permet l'administration du composé par voie parentérale.

SMILES | MIC [1] [µg/mL] | MIC (Staph. aureus ATCC 25178) [µg/mL] | MIC [2] [µg/mL] | MIC [3] [µg/mL] | MIC [4] [µg/mL] | MIC [5] [µg/mL] | MIC [6] [µg/mL] | MIC (Morg. morganii ATCC 8019) [µg/mL] | MIC [7] [µg/mL] | MIC [8] [µg/mL] | MIC (Ps. aeruginosa ATCC 9721) [µg/mL] | MIC (Sal. typhi ATCC 6539) [µg/mL] | MIC [9] [µg/mL] | MIC [10] [µg/mL] | MIC [11] [µg/mL] | MIC [12] [µg/mL] | MIC [13] [µg/mL] | MIC (Ent. cloacae ATCC 23355) [µg/mL] | MIC [14] [µg/mL] | solubility ([15]; pH 7) [µg/mL] | further results
CCn1cc(C(=O)O)c(=O)c2cnc(N3CCNCC3)nc21 [Acide pipémidique, reference compound] | > 64 | 64 (≈ 211 µM) | 4 (≈ 13.2 µM) | 16 (≈ 52.7 µM) | 8 (≈ 26.4 µM) | 16 (≈ 52.7 µM) | 2 (≈ 6.59 µM) | 8 (≈ 26.4 µM) | 16 (≈ 52.7 µM) | 32 (≈ 105 µM) | 32 (≈ 105 µM) | 4 (≈ 13.2 µM) | 4 (≈ 13.2 µM) | 64 (≈ 211 µM) | 2 (≈ 6.59 µM) | 8 (≈ 26.4 µM) | 32 (≈ 105 µM) | 8 (≈ 26.4 µM) | 16 (≈ 52.7 µM) |  | 
C[C@H]1[C@H](N)CN1c1nc2c(cc1F)c(=O)c(C(=O)O)cn2C1CC1 [Exemple 1a, acide 7-[(2S,3R)-2-méthyl-3-amino-1-azétidinyl]-1-cyclopropyl-6-fluoro-1,4-dihydro-4-oxo-1,8-naphtyridine-3-carboxylique, reference compound] |  |  |  |  |  |  |  |  |  |  |  |  |  |  |  |  |  |  |  | 16.5 (≈ 49.6 µM) | solubility ([15]; water): 23 µg/mL (≈ 69.2 µM)
NC1CN(c2nc3c(cc2F)c(=O)c(C(=O)O)cn3-c2ccc(F)cc2F)C1 [Exemple 1b, acide 7-(3-amino-1-azétidinyl)-1-(2,4-difluorophényl)-6-fluoro-1,4-dihydro-4-oxo-1,8-naphtyridine-3-carboxylique, reference compound] |  |  |  |  |  |  |  |  |  |  |  |  |  |  |  |  |  |  |  | 3.7 (≈ 9.48 µM) | solubility ([15]; water): 3 µg/mL (≈ 7.69 µM)
CCC[C@H](N)C(=O)NC1CN(c2nc3c(cc2F)c(=O)c(C(=O)O)cn3-c2ccc(F)cc2F)C1 [Exemple 4bN] | 4 (≈ 8.17 µM) | 4 (≈ 8.17 µM) | 1 (≈ 2.04 µM) | 0.5 (≈ 1.02 µM) | 0.25 (≈ 0.511 µM) | 2 (≈ 4.09 µM) | 0.25 (≈ 0.511 µM) | 2 (≈ 4.09 µM) | 4 (≈ 8.17 µM) | 16 (≈ 32.7 µM) | 4 (≈ 8.17 µM) | 1 (≈ 2.04 µM) | 0.12 (≈ 0.245 µM) | 2 (≈ 4.09 µM) | 0.12 (≈ 0.245 µM) | 1 (≈ 2.04 µM) | 1 (≈ 2.04 µM) | 0.5 (≈ 1.02 µM) | 2 (≈ 4.09 µM) |  | 
C[C@@H](N)C(=O)NC1(C)CN(c2c(F)cc3c(=O)c(C(=O)O)cn(C4CC4)c3c2F)C1 [Exemple 4ca, chlorhydratede l'acide 7-(3-méthyl-3-D-Ala-amino-1-azétidinyl)-1-cyclopropyl-6,8-difluoro-1,4-dihydro-4-oxo-3-quinoléinecarboxylique] | 8 | 0.5 | 1 | 1 | 0.25 | 1 | 0.5 | 1 | 2 | 16 | 4 | 0.5 | 0.25 | 0.5 | 0.25 | 1 | 1 | 0.5 | 2 |  | 

Source: patent publication EP0514268A1, “Substituted amino acid azetidinyl pyridone derivatives, their preparation and use as medicines” (LABORATORIOS DEL DR. ESTEVE, S.A., priority 1991, dated 1992)
